What all share (assay type): physicochemical
Series [1] in a line: Ribogreen assay, mRNA encapsulation efficiency of LNP. To be noted: mRNA-LNP formulation phospholipid:CL4F6:Chol:PEG-DMG 10:50:40:1.0, Fluc mRNA. Here is the method:
(§1) Ethanol solutions containing each phospholipid, CL4F6, Chol, and PEG2000-dimirystoylglycerol (PEG-DMG) at the molar ratio of 10:50:40:1.0 were prepared at the total lipid concentration of 16 mM. For fluorescent labeling of LNPs, 0.5 mol% of DiI or DiR was added to the above solutions. The firefly luciferase (Fluc)-encoding mRNA (TriLink) was dissolved in a 25 mM acetate buffer (pH 4.0). LNPs were prepared by mixing the lipids in ethanol and RNA in an aqueous solution using an iLiNP device at a total flow rate (TFR) of 0.5 mL/min and a flow rate ratio (FRR) (RNA flow rate/lipid flow rate) of 3. The nitrogen to phosphate (N/P) ratio was adjusted to 6. Syringe pumps (Harvard apparatus) were used to control the flow rate of the solutions. The resulting LNP solutions were then dialyzed for 2 hours or more at 4 °C against phosphate buffered saline without Ca^2+ and Mg^2+ (PBS(-)) using Spectra/Por 4 dialysis membranes (molecular weight cut-off 12,000-14,000 Da, Spectrum Laboratories). The LNP solutions were concentrated by ultrafiltration using an Amicon Ultra-15 unit (MWCO 100 kDa, Millipore) as needed.
(§2) The ζ-average particle size, polydispersity index (PDI), and ζ-potential of the LNPs were measured by means of a Zetasizer Nano ZS ZEN3600 instrument (Malvern Instruments). The encapsulation efficiency and total concentration of mRNA were measured by a Ribogreen assay according to a conventional method.

A short description of series [2]: Particle size, PDI and ζ-potential of mRNA-LNP (Zetasizer Nano ZS). The following applies: mRNA-LNP formulation phospholipid:CL4F6:Chol:PEG-DMG 10:50:40:1.0, Fluc mRNA. The procedure: as §1, §2
The nature of series [3]: Lipid polymorphism by 31P NMR method (mixtures with POPC). The following applies: lipid:POPC molar ratio 1:1, 20 mM HEPES pH 7.4, room temperature. The procedure:
In order to examine the interaction between DOPE-Cx and PC and characteristics thereof, lipid polymorphism of the lipid suspension was evaluated by a ^31P NMR method. Since the rotational motion of lipid molecules in a lamellar phase which is a planar structure and a (inverted) hexagonal phase which is a tubular structure receives different restrictions respectively, a specific ^31P NMR spectrum is provided by chemical shift anisotropy. Specifically, the lamellar phase produces a broad […] peak, and the (inverted) hexagonal phase produces a broad […] peak.
First, DOPE or DOPE-C8 and 1-palmitoyl-2-oleoyl-sn-glycero-3-phosphocholine (POPC) were mixed at a predetermined ratio in 400 µL of chloroform (total lipid 16 µmol), and the solvent was removed by a rotary evaporator to form a lipid membrane. The lipid membrane was hydrated with 500 µL of 20 mM HEPES buffer (pH 7.4, 130 mM NaCl) at 60°C. Then, the lipid dispersion was transferred to an NMR tube, and a ^31P NMR spectrum at room temperature was measured by a conventional method using an ECX 400P spectrometer (JEOL Ltd.).

This is an account of results in patent publication EP4796551A1, “ZWITTERIONIC PHOSPHOLIPID COMPOUND AND LIPID NANOPARTICLE CONTAINING THE SAME” (National University Corporation Hokkaido University, priority 2023, dated 2025).

As for `CCCCCCCC/C=C\CCCCCCCC(=O)OC[C@H](COP(=O)(O)OCCNCCC(=O)OC(CC)CC)OC(=O)CCCCCCC/C=C\CCCCCCCC` [DOPE-C3_α2, (R)-2,3-bis(oleoyloxy)propyl (2-((3-oxo-3-(pentan-3-yloxy)propyl)ammonio)ethyl) phosphate], in series [1] (Table 3), the “mRNA encapsulation rate %” value was 97.2%. In series [2] (Table 3), the “Number average particle size (nm)” value is 54 nm, the PDI is reported as 0.20, the “ζ-average particle size (nm)” value was found to be 91 nm and the “ζ-potential (mV)” value is reported as -10.5 mV.
For the compound `CCCCCCCC/C=C\CCCCCCCC(=O)OC[C@H](COP(=O)(O)OCCNCCC(=O)OCCCC)OC(=O)CCCCCCC/C=C\CCCCCCCC` [DOPE-C4, (R)-2,3-bis(oleoyloxy)propyl (2-((3-butoxy-3-oxopropyl)ammonio)ethyl) phosphate], the “mRNA encapsulation rate %” value in series [1] (Table 1) is recorded as 91.2%. In series [2] (Table 1), the “Number average particle size (nm)” value is given as 58 nm, the PDI is 0.17 and the “ζ-potential (mV)” value is -5.0 mV. Also, the “ζ-average particle size (nm)” value in series [2] (Table 1, N/P 6) is reported as 87 nm.
For `CCCCCCCC/C=C\CCCCCCCC(=O)OC[C@H](COP(=O)(O)OCCNCCC(=O)OC(CCC)CCC)OC(=O)CCCCCCC/C=C\CCCCCCCC` [DOPE-C4_α3, (R)-2,3-bis(oleoyloxy)propyl (2-((3-(heptan-4-yloxy)-3-oxopropyl)ammonio)ethyl) phosphate], the “mRNA encapsulation rate %” value in series [1] (Table 3) is on record as 97.1%. In series [2] (Table 3), the “Number average particle size (nm)” value was determined as 52 nm, the PDI was 0.21, the “ζ-average particle size (nm)” value amounted to 91 nm and the “ζ-potential (mV)” value is -12.0 mV.
On to `CCCCCCCC/C=C\CCCCCCCC(=O)OC[C@H](COP(=O)(O)OCCNCCC(=O)OCC(C)CCC)OC(=O)CCCCCCC/C=C\CCCCCCCC` (stereo partly drawn) [DOPE-C5_β1, (R)-2,3-bis(oleoyloxy)propyl (2-((3-((2-methylpentyl)oxy)-3-oxopropyl)ammonio)ethyl) phosphate], for which, in series [1] (Table 2), the “mRNA encapsulation rate %” value is given as 95.9%. Further, in series [2] (Table 2), the “Number average particle size (nm)” value came to 60 nm, the PDI turned out to be 0.21, the “ζ-average particle size (nm)” value stood at 94 nm and the “ζ-potential (mV)” value is -6.4 mV.
`CCCCCCCC/C=C\CCCCCCCC(=O)OC[C@H](COP(=O)(O)OCCNCCC(=O)OCCCCCC)OC(=O)CCCCCCC/C=C\CCCCCCCC` [DOPE-C6, (R)-2,3-bis(oleoyloxy)propyl (2-((3-(hexyloxy)-3-oxopropyl)ammonio)ethyl) phosphate]: the “mRNA encapsulation rate %” value in series [1] (Table 1) is 91.5%. Besides, in series [2] (Table 1), the “Number average particle size (nm)” value was 59 nm, the PDI came out at 0.15 and the “ζ-potential (mV)” value is given as -1.4 mV. Besides, the “ζ-average particle size (nm)” value in series [2] (Table 1, N/P 6) was 86 nm.
Regarding `CCCCCCCC/C=C\CCCCCCCC(=O)OC[C@H](COP(=O)(O)OCCNCCC(=O)OCC(CCC)CCCCC)OC(=O)CCCCCCC/C=C\CCCCCCCC` (stereo partly drawn) [DOPE-C7_β3, (R)-2,3-bis(oleoyloxy)propyl (2-((3-oxo-3-((2-propylheptyl)oxy)propyl)ammonio)ethyl) phosphate], the “lipid phase by 31P NMR spectrum” value in series [3] is “the ratio derived from the inverted hexagonal phase increased”. Besides, the “mRNA encapsulation rate %” value in series [1] (Table 2) amounted to 96.0%. Further, in series [2] (Table 2), the “Number average particle size (nm)” value is on record as 61 nm, the PDI stood at 0.08, the “ζ-average particle size (nm)” value is reported as 79 nm and the “ζ-potential (mV)” value was -9.6 mV.
With `CCCCCCCC/C=C\CCCCCCCC(=O)OC[C@H](COP(=O)(O)OCCNCCC(=O)OCC(CCCC)CCCCCC)OC(=O)CCCCCCC/C=C\CCCCCCCC` (stereo partly drawn) [DOPE-C8_β4, (R)-2,3-bis(oleoyloxy)propyl (2-((3-((2-butyloctyl)oxy)-3-oxopropyl)ammonio)ethyl) phosphate], in series [3], the “lipid phase by 31P NMR spectrum” value is on record as “the ratio derived from the inverted hexagonal phase increased”. Besides, the “mRNA encapsulation rate %” value in series [1] (Table 2) came out at 96.3%. In addition, in series [2] (Table 2), the “Number average particle size (nm)” value is listed as 71 nm, the PDI came to 0.21, the “ζ-average particle size (nm)” value was 112 nm and the “ζ-potential (mV)” value is -5.8 mV.
For the compound `CCCCCCCC/C=C\CCCCCCCC(=O)OC[C@H](COP(=O)(O)OCCNCCC(=O)OCCCCCCCCCC)OC(=O)CCCCCCC/C=C\CCCCCCCC` [DOPE-C10, (R)-2,3-bis(oleoyloxy)propyl (2-((3-(decyloxy)-3-oxopropyl)ammonio)ethyl) phosphate], in series [3], the “lipid phase by 31P NMR spectrum” value is listed as “the ratio derived from the inverted hexagonal phase increased”. Also, the “mRNA encapsulation rate %” value in series [1] (Table 1) is 93.1%. In series [2] (Table 1), the “Number average particle size (nm)” value stood at 48 nm, the PDI is 0.18 and the “ζ-potential (mV)” value was -7.0 mV. Further, the “ζ-average particle size (nm)” value in series [2] (Table 1, N/P 6) stood at 82 nm.
`CCCCCCCC/C=C\CCCCCCCC(=O)OC[C@H](COP(=O)(O)OCCNCCC(=O)OCCCCCCCCCCCC)OC(=O)CCCCCCC/C=C\CCCCCCCC` [DOPE-C12, (R)-2,3-bis(oleoyloxy)propyl (2-((3-(dodecyloxy)-3-oxopropyl)ammonio)ethyl) phosphate]: in series [3], the “lipid phase by 31P NMR spectrum” value is recorded as “the ratio derived from the inverted hexagonal phase increased”. Moreover, the “mRNA encapsulation rate %” value in series [1] (Table 1) stood at 94.2%. Besides, in series [2] (Table 1), the “Number average particle size (nm)” value was found to be 59 nm, the PDI is on record as 0.25 and the “ζ-potential (mV)” value is -6.3 mV. In series [2] (Table 1, N/P 6), the “ζ-average particle size (nm)” value is 100 nm.
For `CCCCCCCC/C=C\CCCCCCCCOC(=O)CCNCCOP(=O)(O)OC[C@@H](COC(=O)CCCCCCC/C=C\CCCCCCCC)OC(=O)CCCCCCC/C=C\CCCCCCCC` [DOPE-C18:1, (R)-2,3-bis(oleoyloxy)propyl (2-((3-(((Z)-octadeca-9-ene-1-yl)oxy)-3-oxopropyl)ammonio)ethyl) phosphate], the “lipid phase by 31P NMR spectrum” value in series [3] is “the ratio derived from the inverted hexagonal phase increased”. For the same compound, in series [1] (Table 1), the “mRNA encapsulation rate %” value is recorded as 93.9%. In series [2] (Table 1), the “Number average particle size (nm)” value came out at 56 nm, the PDI is 0.18 and the “ζ-potential (mV)” value is given as -2.9 mV. Besides, in series [2] (Table 1, N/P 6), the “ζ-average particle size (nm)” value was found to be 81 nm.
Turning to `CCCCCCCC/C=C\CCCCCCCC(=O)OC[C@H](COP(=O)(O)OCCNCCC(=O)OCCC(C)CCC=C(C)C)OC(=O)CCCCCCC/C=C\CCCCCCCC` (stereo partly drawn) [DOPE-Cit, (R)-2,3-bis(oleoyloxy)propyl (2-((3-((3,7-dimethyloct-6-en-1-yl)oxy)-3-oxopropyl)ammonio)ethyl) phosphate], the “mRNA encapsulation rate %” value in series [1] (Table 2) is 95.9%. In series [2] (Table 2), the “Number average particle size (nm)” value came out at 65 nm, the PDI stood at 0.07, the “ζ-average particle size (nm)” value stood at 85 nm and the “ζ-potential (mV)” value is -6.1 mV.
Take `CCCCCCCCCCCCCCCCCC(=O)OC[C@H](COP(=O)([O-])OCC[N+](C)(C)C)OC(=O)CCCCCCCCCCCCCCCCC` [DSPC, 1,2-Distearoyl-sn-glycero-3-phosphocholine, reference compound]: the “mRNA encapsulation rate %” value in series [1] (Table 1) is reported as 95.7%. In addition, in series [2] (Table 1), the “Number average particle size (nm)” value came to 56 nm, the PDI is given as 0.08 and the “ζ-potential (mV)” value is listed as -3.6 mV. Also, in series [2] (Table 1, N/P 6), the “ζ-average particle size (nm)” value is reported as 75 nm.
